Laboratory results published in patent US20260125374A1, “PI3K-ALPHA INHIBITORS AND METHODS OF MAKING AND USING THE SAME” (Relay Therapeutics, Inc., priority 2021, published 2026).
Values after ≈ are worked out from the molar mass of the structure shown.

Experiments:
Format in all cases: physicochemical
Hygroscopicity by DVS = settings: for 1st Desorp. (%) / 1st Sorp. (%) / 2nd Desorp. (%) / 2nd Sorp. (%): DVS 25° C.
Experimental: • Method 1 (for I-1 Form A and I-3 Form A) • Instrument Intrinsic, Advantage or Adventure • Total gas flow 200 sccm • Oven temperature 25° C. • Solvent Water • Method Cycle: 40-0-95-0-40% RH • Stage Step: 10% • Equilibrium: 0.002 dm/dt (%/min) • Minimum dm/dt stability duration: 60 min • Maximum dm/dt stage time: 360 min • Method 2 (for I-4 Form A) • Instrument Intrinsic, Advantage or Adventure • Total gas flow 200 sccm • Oven temperature 25° C. • Solvent Water • Method Cycle: 40-95-0-95-40% RH • Stage Step: 10% • Equilibrium: 0.002 dm/dt (%/min) • Minimum dm/dt stability duration: 60 min • Maximum dm/dt stage time: 360 min
I-1 Form A is hygroscopic. It absorbs about 5.5% water by weight from 40% RH to 95% RH. […] It absorbs about 40% water by weight from 40% RH to 95% RH. Form changed after the DVS test. […] It starts to absorb water when RH>40% and potential hydrate form generates at high humidity based on DVS data. The sorption and desorption are reversible.
Water sorption and desorption behavior of I-1 Form A, I-3 Form A, and I-4 Form A was investigated by DVS at 25° C. with a cycle of 40-0-95-0-40% RH, dm/dt 0.002, min. equilibration time 60 min and max. equilibration time 360 min. XRPD was measured after the DVS test to determine form change.

Bulk stability (1 week) = assay: Bulk stability (1 week); parameters: key to CL (color): A: No change of color; B: Slight discoloration; C: Medium discoloration; D: Strong discoloration; DC: complete decomposition; settings: for CL (color) / Bulk (HPLC) chiral purity / Bulk (HPLC) purity / Bulk (XRPD): Solid state, 1 week
Experimental: Bulk stability of I-1 Form A and the 2 salt candidates was investigated at 25° C./92% RH in an open container, at 40° C./75% RH in an open container and at 60° C. in a tight container over 1 week. […] All the 3 salts show no obvious racemization based on chiral purity results.
I-1 Form A and the 2 salts were placed at 25° C./92% RH in an open container, at 40° C./75% RH in an open container and at 60° C. in a closed container for I week. Samples after I week were characterized by XRPD and HPLC and inspected for color change.

[1] = Solution stability at 25° C.
Experimental: Solution stability of I-1 Form A and I-3 Form A was investigated in methanol and THF/ACN (2:1, v/v) at 25° C. Target concentration is 4 mg/mL.
Accurate 4 mg of I-1 Form A, 5.13 mg of I-3 Form A was weighed into a 8 mL glass vial, respectively. The salt amount used is equivalent to 4 mg anhydrous free form.

[2] = Approximate solubility at 25° C. (visual observation)
Experimental: Max. volume of each solvent added was 1 mL. Approximate solubility was determined by visual observation.

[3] = Salt candidates risk matrix (summary)
[4] = 25° C./92% RH, open container, listed as I-1 Form A
[5] = 40° C./75% RH, open container, listed as I-1 Form A
[6] = 60° C., tight container, listed as I-1 Form A
[7] = before storage, listed as I-1 Form A
[8] = 25° C., MeOH, 0 h, listed as I-1 Form A
[9] = 25° C., MeOH, 6 h, listed as I-1 Form A
[10] = 25° C., MeOH, 24 h, listed as I-1 Form A
[11] = 25° C., THF/ACN(2:1, v/v), 0 h, listed as I-1 Form A
[12] = 25° C., THF/ACN(2:1, v/v), 6 h, listed as I-1 Form A
[13] = 25° C., THF/ACN(2:1, v/v), 24 h, listed as I-1 Form A

## N#Cc1c(-c2cc(NC(=O)c3cc(F)cc(C(F)(F)F)c3)c3c(c2)C(=O)N[C@H]3c2cc(F)ccc2Cl)ccc2ncnn12 [Compound I-1, (R)-N-(3-(2-chloro-5-fluorophenyl)-6-(5-cyano-[1,2,4]triazolo[1,5-a]pyridin-6-yl)-1-oxoisoindolin-4-yl)-3-fluoro-5-(trifluoromethyl)benzamide]
Hygroscopicity by DVS; 0% RH, listed as I-1 Form A
  1st Desorp. (%): 0.17%
  1st Sorp. (%): 0.17%
  2nd Desorp. (%): 0.001%
  2nd Sorp. (%): 0.001%
Hygroscopicity by DVS; 10% RH
  2nd Desorp. (%): 0.11%
Hygroscopicity by DVS; 10% RH, listed as I-1 Form A
  1st Desorp. (%): 0.25%
  1st Sorp. (%): 0.23%
  2nd Sorp. (%): 0.08%
Hygroscopicity by DVS; 20% RH, listed as I-1 Form A
  1st Desorp. (%): 0.33%
  1st Sorp. (%): 0.29%
  2nd Desorp. (%): 0.21%
  2nd Sorp. (%): 0.15%
Hygroscopicity by DVS; 30% RH, listed as I-1 Form A
  1st Desorp. (%): 0.42%
  1st Sorp. (%): 0.35%
  2nd Desorp. (%): 0.33%
  2nd Sorp. (%): 0.22%
Hygroscopicity by DVS; 40% RH, listed as I-1 Form A
  1st Desorp. (%): 0.52%
  1st Sorp. (%): 0.42%
  2nd Desorp. (%): 0.51%
  2nd Sorp. (%): 0.32%
Hygroscopicity by DVS; 50% RH, listed as I-1 Form A
  1st Sorp. (%): 0.54%
  2nd Desorp. (%): 0.92%
Hygroscopicity by DVS; 60% RH, listed as I-1 Form A
  1st Sorp. (%): 0.71%
  2nd Desorp. (%): 1.30%
Hygroscopicity by DVS; 70% RH, listed as I-1 Form A
  1st Sorp. (%): 1.02%
  2nd Desorp. (%): 1.62%
Hygroscopicity by DVS; 80% RH, listed as I-1 Form A
  1st Sorp. (%): 1.84%
  2nd Desorp. (%): 2.15%
Hygroscopicity by DVS; 90% RH, listed as I-1 Form A
  1st Sorp. (%): 3.24%
  2nd Desorp. (%): 3.56%
Hygroscopicity by DVS; 95% RH, listed as I-1 Form A
  1st Sorp. (%): 5.90%
  2nd Desorp. (%): 5.90%
Hygroscopicity by DVS; DVS at 25° C., listed as I-1 Form A
  hygroscopicity: hygroscopic
Hygroscopicity by DVS; from 40% RH to 95% RH, 25° C., listed as I-1 Form A
  water absorbed: about 5.5 % water by weight
Hygroscopicity by DVS; listed as I-1 Form A
  form after the DVS test (XRPD): no form and crystallinity change
Bulk stability (1 week); [3]
  Chemical stability: Stable
  Physical stability: Stable
Bulk stability (1 week); 25° C./92% RH, open container
  CL (color): A
Bulk stability (1 week); [4]
  Bulk (HPLC) chiral purity: 98.9%
  Bulk (HPLC) purity: 99.0%/
  Bulk (XRPD): No form change
Bulk stability (1 week); 40° C./75% RH, open container
  CL (color): A
Bulk stability (1 week); [5]
  Bulk (HPLC) chiral purity: 98.9%
  Bulk (HPLC) purity: 99.0%/
  Bulk (XRPD): No form change
Bulk stability (1 week); 60° C., tight container
  Bulk (XRPD): No form change
  CL (color): A
Bulk stability (1 week); [6]
  Bulk (HPLC) chiral purity: 98.9%
  Bulk (HPLC) purity: 99.0%/
Bulk stability (1 week); [7]
  Chiral purity (initial): 99.0%
  Initial purity by HPLC: 99.0%
[1]; [8]
  Chemical purity: 98.9%
  Chiral purity: 98.9%
[1]; [9]
  Chemical purity: 99.0%
  Chiral purity: 98.9%
[1]; [10]
  Chemical purity: 99.1%
  Chiral purity: 98.9%
[1]; [11]
  Chemical purity: 98.6%
  Chiral purity: 98.9%
[1]; [12]
  Chemical purity: 98.7%
  Chiral purity: 98.9%
[1]; [13]
  Chemical purity: 99.0%
  Chiral purity: 98.9%
[1]; before dissolution, listed as I-1 Form A
  Initial chiral purity: Initial chiral purity: 99.0%
[1]; methanol and THF/ACN (2:1, v/v), 25° C., 4 mg/mL
  racemization in solution: no racemization
[1]; methanol and THF/ACN (2:1, v/v), 25° C., at least 24 h, 4 mg/mL, listed as I-1 Form A
  chemical stability in solution: chemically stable
[2]; 1,4-dioxane, organic solvent or mixture, thermodynamic from solid, 1,4-Dioxane, polymorph screening batch
  Solubility: 29 to 33 mg/mL (≈ 47.6 to 54.2 mM)
[2]; 2-MeTHF, organic solvent or mixture, thermodynamic from solid, polymorph screening batch
  Solubility: 5 to 6 mg/mL (≈ 8.21 to 9.85 mM)
[2]; acetone, organic solvent or mixture, thermodynamic from solid, polymorph screening batch
  Solubility: 43 to 52 mg/mL (≈ 70.6 to 85.4 mM)
[2]; acetone, organic solvent or mixture, thermodynamic from solid, starting material for salt screening
  Solubility: 12 to 17 mg/mL
[2]; acetonitrile, organic solvent or mixture, thermodynamic from solid, polymorph screening batch
  Solubility: 10 to 11 mg/mL (≈ 16.4 to 18.1 mM)
[2]; acetonitrile, organic solvent or mixture, thermodynamic from solid, starting material for salt screening
  Solubility: 10 to 17 mg/mL
[2]; anisole, organic solvent or mixture, thermodynamic from solid, polymorph screening batch
  Solubility: < 5 mg/mL
[2]; benzyl alcohol, organic solvent or mixture, thermodynamic from solid, polymorph screening batch
  Solubility: 16 to 18 mg/mL (≈ 26.3 to 29.6 mM)
[2]; chloroform, organic solvent or mixture, thermodynamic from solid, polymorph screening batch
  Solubility: < 5 mg/mL
[2]; dichloromethane, organic solvent or mixture, thermodynamic from solid, polymorph screening batch
  Solubility: < 5 mg/mL
[2]; dichloromethane, organic solvent or mixture, thermodynamic from solid, starting material for salt screening
  Solubility: < 5 mg/mL
[2]; ethanol, organic solvent or mixture, thermodynamic from solid, polymorph screening batch
  Solubility: 6 to 7 mg/mL (≈ 9.85 to 11.5 mM)
[2]; ethanol, organic solvent or mixture, thermodynamic from solid, starting material for salt screening
  Solubility: < 5 mg/mL
[2]; ethyl acetate, organic solvent or mixture, thermodynamic from solid, polymorph screening batch
  Solubility: 6 to 7 mg/mL (≈ 9.85 to 11.5 mM)
[2]; heptane, organic solvent or mixture, thermodynamic from solid, polymorph screening batch
  Solubility: < 5 mg/mL
[2]; isopropanol, organic solvent or mixture, thermodynamic from solid, polymorph screening batch
  Solubility: < 5 mg/mL
[2]; isopropanol, organic solvent or mixture, thermodynamic from solid, starting material for salt screening
  Solubility: < 5 mg/mL
[2]; isopropyl acetate, organic solvent or mixture, thermodynamic from solid, polymorph screening batch
  Solubility: < 5 mg/mL
[2]; isopropyl acetate, organic solvent or mixture, thermodynamic from solid, starting material for salt screening
  Solubility: < 5 mg/mL
[2]; methanol, organic solvent or mixture, thermodynamic from solid, polymorph screening batch
  Solubility: 15 to 17 mg/mL (≈ 24.6 to 27.9 mM)
[2]; methanol, organic solvent or mixture, thermodynamic from solid, starting material for salt screening
  Solubility: 12 to 17 mg/mL
[2]; methyl ethyl ketone, organic solvent or mixture, thermodynamic from solid, polymorph screening batch
  Solubility: 26 to 28 mg/mL (≈ 42.7 to 46 mM)
[2]; methyl ethyl ketone, organic solvent or mixture, thermodynamic from solid, starting material for salt screening
  Solubility: 12 to 17 mg/mL
[2]; nitromethane, organic solvent or mixture, thermodynamic from solid, Nitromethane (NM), polymorph screening batch
  Solubility: 7 to 8 mg/mL (≈ 11.5 to 13.1 mM)
[2]; t-butyl methyl ether, organic solvent or mixture, thermodynamic from solid, polymorph screening batch
  Solubility: < 5 mg/mL
[2]; tetrahydrofuran, organic solvent or mixture, thermodynamic from solid, polymorph screening batch
  Solubility: 52 to 65 mg/mL (≈ 85.4 to 107 mM)
[2]; tetrahydrofuran, organic solvent or mixture, thermodynamic from solid, starting material for salt screening
  Solubility: 33 to 64 mg/mL
[2]; toluene, organic solvent or mixture, thermodynamic from solid, polymorph screening batch
  Solubility: < 5 mg/mL
[2]; trifluoroethanol, organic solvent or mixture, thermodynamic from solid, starting material for salt screening
  Solubility: 12 to 17 mg/mL
[2]; water, thermodynamic from solid, polymorph screening batch
  Solubility: < 5 mg/mL
[2]; water, thermodynamic from solid, starting material for salt screening
  Solubility: < 5 mg/mL
